Laboratory results from US6753345B2, “7-hexanolytaxol and methods for preparing the same” (Hauser, Inc., priority 1998, dated 2004).

Assays:
[1] = system: MDR+ cell line; test: Multidrug resistant cell line screening (MDR ratio); format: cell-based
Description: The compound of the present invention was further tested on multidrug resistant cell lines. The resistance of cancer cells to multiple chemotherapeutic drugs which are structurally unrelated has been termed “multidrug resistance.” In the past several years, several mechanisms of multidrug resistance have been described, including the expression of a cell surface multidrug efflux pump (P-glycoprotein or the multidrug transporter), altered glutathione metabolism, reduced activity of topoisomerase II, and various less clearly defined changes in cellular proteins. Because of evidence that expression of P-glycoprotein is associated with drug-resistance in cancer, P-glycoprotein has been studied extensively from the point of view of its biochemistry and mechanism of action in order to develop inhibitors which can be used clinically to reverse drug resistance of cancers in patients. The clinical significance of the other mechanisms of multidrug resistance are less well-established, but many model systems indicate that they may contribute to clinical resistance.

[2] = system: MDA-MB-435; test: SRB cytotoxicity screening assay (Breast Cancer)
[3] = system: SF-295; test: SRB cytotoxicity screening assay (CNS Cancer)
[4] = system: SK-BR-3; test: SRB cytotoxicity screening assay (Breast Cancer)
[5] = system: MDA-N; test: SRB cytotoxicity screening assay (Breast Cancer)
[6] = system: SF-268; test: SRB cytotoxicity screening assay (CNS Cancer)
[7] = system: CAKI-1; test: SRB cytotoxicity screening assay (Renal Cancer)
[8] = system: SNB-75; test: SRB cytotoxicity screening assay (CNS Cancer)
[9] = system: MDA-MB-468; test: SRB cytotoxicity screening assay (Breast Cancer)
[10] = system: SK-OV-3; test: SRB cytotoxicity screening assay (Ovarian)
[11] = system: ACHN; test: SRB cytotoxicity screening assay (Renal Cancer)
[12] = system: MAXF 401; test: SRB cytotoxicity screening assay (Breast Cancer); format: cell-based; details: MAXF 401 (Breast Cancer), 48 hour incubation
[13] = system: NCI-H23; test: SRB cytotoxicity screening assay (Non-Small Cell Lung Cancer)
[14] = system: SK-MEL-5; test: SRB cytotoxicity screening assay (Melanoma)
[15] = system: cell line panel (60 lines, nine disease-related subpanels)
[16] = system: CCRF-CEM; details: human, 48 h

CCCCCC(=O)O[C@H]1C[C@H]2OC[C@@]2(OC(C)=O)[C@H]2[C@H](OC(=O)c3ccccc3)[C@]3(O)C[C@H](OC(=O)[C@H](O)[C@@H](NC(=O)c4ccccc4)c4ccccc4)C(C)=C([C@@H](OC(C)=O)C(=O)[C@]12C)C3(C)C [7-hexanoyltaxol]
MDR (ratio of two IC50 values, numerator is an MDR+ cell line) ([1]; higher numbers = less effective vs. MDR cells): 1 | effectiveness against multidrug resistant cell lines compared with paclitaxel ([1]; multidrug resistant cell lines): vastly more effective than paclitaxel | GI50 ([2]; Homo sapiens, MDA-MB-435, 48 h, read-out: Log10 GI50 (converted)): < 10 nM | CC50 ([2]; Homo sapiens, MDA-MB-435, 48 h, read-out: Log10 LC50 (converted)): < 10 nM | Log10 TGI ([2]; MDA-MB-435 (Breast Cancer), PG=0, 48 hour incubation): <−8.00 molar | GI50 ([3]; Homo sapiens, SF-295, 48 h, read-out: Log10 GI50 (converted)): < 10 nM | CC50 ([3]; Homo sapiens, SF-295, 48 h, read-out: Log10 LC50 (converted)): > 100 µM | Log10 TGI ([3]; SF-295 (CNS Cancer), PG=0, 48 hour incubation): −6.41 molar | GI50 ([4]; Homo sapiens, SK-BR-3, 48 h, read-out: Log10 GI50 (converted)): < 10 nM | CC50 ([4]; Homo sapiens, SK-BR-3, 48 h, read-out: Log10 LC50 (converted)): > 100 µM | Log10 TGI ([4]; SK-BR-3 (Breast Cancer), PG=0, 48 hour incubation): −6.04 molar | GI50 ([5]; Homo sapiens, MDA-N, 48 h, read-out: Log10 GI50 (converted)): < 10 nM | CC50 ([5]; Homo sapiens, MDA-N, 48 h, read-out: Log10 LC50 (converted)): < 10 nM | Log10 TGI ([5]; MDA-N (Breast Cancer), PG=0, 48 hour incubation): <−8.00 molar | GI50 ([6]; Homo sapiens, SF-268, 48 h, read-out: Log10 GI50 (converted)): < 10 nM | CC50 ([6]; Homo sapiens, SF-268, 48 h, read-out: Log10 LC50 (converted)): > 100 µM | Log10 TGI ([6]; SF-268 (CNS Cancer), PG=0, 48 hour incubation): −4.95 molar | Log10 TGI ([7]; CAKI-1 (Renal Cancer), PG=0, 48 hour incubation): −4.52 molar | GI50 ([7]; Homo sapiens, CAKI-1, 48 h, read-out: Log10 GI50 (converted)): 263 nM | CC50 ([7]; Homo sapiens, CAKI-1, 48 h, read-out: Log10 LC50 (converted)): > 100 µM | GI50 ([8]; Homo sapiens, SNB-75, 48 h, read-out: Log10 GI50 (converted)): < 10 nM | CC50 ([8]; Homo sapiens, SNB-75, 48 h, read-out: Log10 LC50 (converted)): > 100 µM | Log10 TGI ([8]; SNB-75 (CNS Cancer), PG=0, 48 hour incubation): −7.41 molar | GI50 ([9]; Homo sapiens, MDA-MB-468, 48 h, read-out: Log10 GI50 (converted)): < 10 nM | CC50 ([9]; Homo sapiens, MDA-MB-468, 48 h, read-out: Log10 LC50 (converted)): > 100 µM | Log10 TGI ([9]; MDA-MB-468 (Breast Cancer), PG=0, 48 hour incubation): −6.26 molar | GI50 ([10]; Homo sapiens, SK-OV-3, 48 h, read-out: Log10 GI50 (converted)): < 10 nM | CC50 ([10]; Homo sapiens, SK-OV-3, 48 h, read-out: Log10 LC50 (converted)): 91.2 µM | Log10 TGI ([10]; SK-OV-3 (Ovarian), PG=0, 48 hour incubation): −4.84 molar | Log10 TGI ([11]; ACHN (Renal Cancer), PG=0, 48 hour incubation): >−4.00 molar | GI50 ([11]; Homo sapiens, ACHN, 48 h, read-out: Log10 GI50 (converted)): 95.5 nM | CC50 ([11]; Homo sapiens, ACHN, 48 h, read-out: Log10 LC50 (converted)): > 100 µM | GI50 ([12]; Homo sapiens, MAXF401, PG=+50, read-out: Log10 GI50 (converted)): < 10 nM | Log10 TGI ([12]; PG=0): <−8.00 molar | GI50 ([13]; Homo sapiens, NCI-H23, 48 h, read-out: Log10 GI50 (converted)): < 10 nM | CC50 ([13]; Homo sapiens, NCI-H23, 48 h, read-out: Log10 LC50 (converted)): 45.7 µM | Log10 TGI ([13]; NCI-H23 (Non-Small Cell Lung Cancer), PG=0, 48 hour incubation): −4.86 molar | GI50 ([14]; Homo sapiens, SK-MEL-5, 48 h, read-out: Log10 GI50 (converted)): < 10 nM | CC50 ([14]; Homo sapiens, SK-MEL-5, 48 h, read-out: Log10 LC50 (converted)): > 100 µM | Log10 TGI ([14]; SK-MEL-5 (Melanoma), PG=0, 48 hour incubation): −4.56 molar

CC(=O)O[C@H]1C(=O)[C@@]2(C)[C@H]([C@H](OC(=O)c3ccccc3)[C@]3(O)C[C@H](OC(=O)[C@H](O)[C@@H](NC(=O)c4ccccc4)c4ccccc4)C(C)=C1C3(C)C)[C@]1(OC(C)=O)CO[C@@H]1C[C@@H]2O [Paclitaxel, paclitaxel, reference compound]
Log10 LC50, Range [15]: 0.45 | Log10 LC50 [16]: >−4.00 molar
